The values below are quoted from earlier work in US20250177296A1, “SLURRY AND SOLUTION COMPOSITIONS” (MIRAKI INNOVATION THINK TANK LLC, priority 2018, published 2025).

The conditions of the data set: pretreatment with 2% lidocaine.

Regarding `CCN(CC)CC(=O)Nc1c(C)cccc1C` [lidocaine], the “Effect of pretreatment on pain response associated with hypertonic saline” value is recorded as “attenuates pain response”.
